Experimental data as given in the supplement of paper PMC13380429.
± gives the standard deviation of the averaged measurements.

How the values were obtained:
Details in all cases: 72 h
Caco-2 [1] = test: cell viability relative to DMSO; higher = less toxic
Calu-3 [2] = test: as above
HepG2 [3] = test: as above
Vero E6 [4] = test: as above
Caco-2 [5] = test: relative viability EC50 (midpoint between 100% and the lowest measured viability); higher = less toxic
Calu-3 [6] = test: as above
HepG2 [7] = test: as above
Vero E6 [8] = test: as above
Caco-2 [9] = test: drug sensitivity score (DSS) for viability; higher = more toxic; extreme values may be limits of the assay
Calu-3 [10] = test: as above
HepG2 [11] = test: as above
Vero E6 [12] = test: as above
U2OS [13] = test: cell viability relative to DMSO; higher = less toxic
U2OS [14] = test: relative viability EC50 (midpoint between 100% and the lowest measured viability); higher = less toxic
U2OS [15] = test: drug sensitivity score (DSS) for viability; higher = more toxic; extreme values may be limits of the assay

Row | Structure (SMILES) | cell viability (Caco-2 [1]; 1 nM) [%] | cell viability (Caco-2 [1]; 10 nM) [%] | cell viability (Caco-2 [1]; 100 nM) [%] | cell viability (Caco-2 [1]; 1000 nM) [%] | cell viability (Caco-2 [1]; 10000 nM) [%] | cell viability (Calu-3 [2]; 1 nM) [%] | cell viability (Calu-3 [2]; 10 nM) [%] | cell viability (Calu-3 [2]; 100 nM) [%] | cell viability (Calu-3 [2]; 1000 nM) [%] | cell viability (Calu-3 [2]; 10000 nM) [%] | cell viability (HepG2 [3]; 1 nM) [%] | cell viability (HepG2 [3]; 10 nM) [%] | cell viability (HepG2 [3]; 100 nM) [%] | cell viability (HepG2 [3]; 1000 nM) [%] | cell viability (HepG2 [3]; 10000 nM) [%] | cell viability (Vero E6 [4]; 1 nM) [%] | cell viability (Vero E6 [4]; 10 nM) [%] | cell viability (Vero E6 [4]; 100 nM) [%] | cell viability (Vero E6 [4]; 1000 nM) [%] | cell viability (Vero E6 [4]; 10000 nM) [%] | relative viability EC50 (Caco-2 [5]) [µM] | relative viability EC50 (Calu-3 [6]) [µM] | relative viability EC50 (HepG2 [7]) [µM] | relative viability EC50 (Vero E6 [8]) [µM] | drug sensitivity score (Caco-2 [9]) | drug sensitivity score (Calu-3 [10]) | drug sensitivity score (HepG2 [11]) | drug sensitivity score (Vero E6 [12]) | cell viability (U2OS [13]; 1 nM) [%] | cell viability (U2OS [13]; 10 nM) [%] | cell viability (U2OS [13]; 100 nM) [%] | cell viability (U2OS [13]; 1000 nM) [%] | cell viability (U2OS [13]; 10000 nM) [%] | relative viability EC50 (U2OS [14]) [µM] | drug sensitivity score (U2OS [15])
1 | CC(C)(C#N)c1ccc(N2C(=O)OCc3cnc4ccc(-c5cnc6ccccc6c5)cc4c32)cc1 | 107 | 108 | 102 | 75 | 77.4 | 110 | 97.3 | 110 | 68.3 | 41.5 | 116 | 113 | 96.4 | 100 | 89.6 | 109 | 104 | 103 | 97.4 | 84.6 | > 10 | 0.939 | > 10 | > 10 | 3.7 | 7.1 | 0 | 0.5 | – | – | – | – | – | – | –
2 | CC1=C(C(=O)Nc2cc3cn[nH]c3cc2F)C(c2ccc(C(F)(F)F)cc2)CC(=O)N1 (configuration not stated) | 83 | 89.6 | 91.3 | 99.1 | 102 | – | – | – | – | – | 100 | 103 | 104 | 95.6 | 92 | 102 | 104 | 101 | 82.5 | 84.4 | > 10 | – | > 10 | > 10 | 0 | – | 0 | 2 | 94.9 | 97.9 | 92.3 | 96.8 | 86.3 | > 10 | 0
3 | CC1Oc2cc(cnc2N)-c2c(nn(C)c2C#N)CN(C)C(=O)c2ccc(F)cc21 (configuration not stated) | 89.2 ± 7.6 | 97 ± 8 | 96.15 ± 0.21 | 91.6 ± 4.1 | 83.4 ± 7.8 | 105 ± 5.7 | 95.5 ± 3.8 | 88.7 ± 2.4 | 74.8 ± 4.3 | 78.7 ± 7.5 | 95 ± 4.1 | 101 ± 9.8 | 99.3 ± 4.7 | 87.5 ± 6.2 | 72.2 ± 6.9 | 103 ± 4.9 | 92 ± 6.6 | 90.5 ± 2.6 | 80.2 ± 0.28 | 83.2 ± 7.3 | > 10 | – | – | > 10 | 0 | 4.85 ± 1.1 | 2.5 ± 1.6 | 3.35 ± 0.35 | 97.8 ± 2.6 | 103.8 ± 0.64 | 97.2 ± 2.4 | 96.6 ± 1.4 | 83.5 ± 8.1 | > 10 | 0.7 ± 0.99
4 | Cn1cc(-c2[nH]c3cc(NC(=O)[C@H](N)C4CCCCC4)cc4c3c2C=NNC4=O)cn1 | 106 | 98.2 | 97.8 | 104 | 25.9 | 109 | 98.7 | 114 | 66.7 | 51.2 | 97.3 | 103 | 91.5 | 50.9 | 30.7 | 95.4 | 99.4 | 98.3 | 95.3 | 84.5 | 3.48 | – | 0.493 | > 10 | 3.7 | 6.5 | 10.3 | 0.6 | 99.9 | 98.4 | 96.3 | 8.5 | 4.2 | 0.324 | 17.1
5 | NC(=O)c1cnc2[nH]ccc2c1N[C@@H]1[C@@H]2CC3C[C@H]1C[C@@](O)(C3)C2 | 101 | 101 | 90.5 | 104 | 113 | – | – | – | – | – | 113 | 112 | 107 | 109 | 47 | 95.4 | 97.6 | 99.6 | 107 | 101 | > 10 | – | 3.87 | > 10 | 0 | – | 2.3 | 0 | 96.4 | 97.1 | 96.5 | 93.1 | 67.2 | – | 2.6
6 | Clc1cccc(/C=N/N=C/c2cccc(Cl)c2)c1 [3,3'-dichlorobenzaldazine] | 103 | 99.1 | 105 | 94.7 | 103 | 107 | 93.9 | 96.7 | 97.5 | 96.1 | 94.8 | 95.6 | 101 | 100 | 84.5 | 99.6 | 103 | 99.5 | 98.9 | 99.5 | > 10 | > 10 | > 10 | > 10 | 0 | 0 | 0.3 | 0 | – | – | – | – | – | – | –
7 | CC(=O)N1CCC[C@H]1C(=O)N[C@@H](Cc1cnc[nH]1)C(=O)N[C@@H](CO)C(=O)N[C@@H](CS)C(=O)N[C@@H](CC(N)=O)C(N)=O [ATN-161] | 107 | 96.6 | 97.5 | 103 | 104 | 102 | 102 | 101 | 107 | 97.2 | 102 | 104 | 106 | 93.4 | 106 | 92.9 | 103 | 96.9 | 100 | 108 | > 10 | > 10 | > 10 | > 10 | 0 | 0 | 0 | 0 | – | – | – | – | – | – | –
8 | C[C@@H]1COCCN1c1cc(C2([S@](C)(=N)=O)CC2)nc(-c2ccnc3[nH]ccc23)n1 [AZD6738] | 92.8 | 100 | 103 | 96.7 | 49.8 | 92.8 | 96 | 108 | 92.7 | 50.2 | 94.5 | 88.6 | 104 | 67.7 | 35.6 | 98.8 | 94.5 | 92.1 | 90.9 | 78.5 | 2.65 | – | 0.998 | > 10 | 3.1 | 3.9 | 7.6 | 1.3 | 94.1 | 101 | 100 | 96.8 | 16.8 | 2.88 | 5.1
9 | O=c1[nH]c2ccc(Cl)cc2c(N[C@@H]2CN3CCC2CC3)c1-c1nc2ccccc2[nH]1 [CHIR-124] | 103 | 96.9 | 111 | 66.9 | 44 | 92.3 | 91.8 | 105 | 97.3 | 59.9 | 103 | 99.3 | 101 | 36.7 | 3.1 | 105 | 103 | 105 | 77.6 | 6.6 | 0.869 | – | 0.777 | 1.59 | 7 | 2.4 | 12.7 | 8.6 | 94.1 | 96.9 | 95.3 | 4.5 | 0.8 | 0.307 | 18
10 | O=C1COc2nccc(-c3ccccc3F)c2CN1Cc1cc(C(F)(F)F)cc(C(F)(F)F)c1 [GPBAR-A] | 102 | 102 | 106 | 102 | 86.9 | 81.2 | 104 | 67.2 | 98.7 | 68.1 | 108 | 91.3 | 103 | 94.4 | 100 | 101 | 99 | 98.9 | 101 | 102 | > 10 | – | > 10 | > 10 | 0.1 | 4.3 | 0 | 0 | 97.7 | 103 | 100 | 104 | 91.2 | > 10 | 0
11 | CNc1ncnc2c1ncn2[C@@H]1O[C@H](CO)[C@@H](O)[C@H]1O [N6-methyladenosine] | 109 | 112 | 98.5 | 110 | 106 | 110 | 89.5 | 102 | 92 | 86 | 105 | 108 | 101 | 104 | 81.2 | 99.8 | 103 | 102 | 98.7 | 102 | > 10 | > 10 | > 10 | > 10 | 0 | 0.7 | 0.3 | 0 | – | – | – | – | – | – | –
12 | CCNC(=O)[C@H]1O[C@@H](n2cnc3c(N)ncnc32)[C@H](O)[C@@H]1O [NECA] | 102 | 97.6 | 110 | 111 | 110 | 106 | 102 | 94.9 | 88.5 | 92.8 | 94.8 | 102 | 107 | 105 | 105 | 100 | 105 | 96.1 | 101 | 94.4 | > 10 | > 10 | > 10 | > 10 | 0 | 0.6 | 0 | 0 | – | – | – | – | – | – | –
13 | Cn1cc(-c2ccc3ncc(Cc4ccc5ncccc5c4)n3n2)cn1 [NVP-BVU972] | 96.2 | 99.2 | 93.8 | 97.8 | 76.4 | 95.9 | 100 | 98.6 | 101 | 80.8 | 105 | 107 | 87.2 | 35.8 | 15.6 | 103 | 100 | 103 | 108 | 87.8 | > 10 | > 10 | 0.404 | > 10 | 1.2 | 0.5 | 13.6 | 0 | – | – | – | – | – | – | –
14 | O=c1onc2cnc3ccccc3n12 [ODQ] | 91.3 | 96 | 95.2 | 89.9 | 112 | – | – | – | – | – | 105 | 110 | 100 | 110 | 94.3 | 97.9 | 96.4 | 97.6 | 108 | 105 | > 10 | – | > 10 | > 10 | 0 | – | 0 | 0 | – | – | – | – | – | – | –
15 | O=C(O)[C@H](Cc1c[nH]c2ccccc12)N1C(=O)c2ccccc2C1=O [RG108] | 96.8 | 100 | 91.9 | 106 | 102 | – | – | – | – | – | 118 | 109 | 114 | 99.8 | 109 | 97.4 | 99.1 | 97.6 | 92 | 101 | > 10 | – | > 10 | > 10 | 0 | – | 0 | 0 | 105 | 105 | 97.1 | 105 | 96.2 | > 10 | 0
16 | O=C(O)CCN(O)C(=O)CCCCCCCCC1CC1 [TC-E-5002] | 89 | 97.7 | 91.3 | 92.1 | 91.9 | – | – | – | – | – | 96.1 | 103 | 101 | 99.3 | 104 | 97.2 | 99.2 | 97.7 | 93.2 | 94.9 | > 10 | – | > 10 | > 10 | 0 | – | 0 | 0 | – | – | – | – | – | – | –
